Results: article PMC3771683 (Analytical chemistry, 2013)

How the values were obtained:
[1] = test system: Mapk, Akt, and Rps6ka1 kinases; type: cell-based; conditions: MCF 10A cells treated with EGF or lapatinib vs DMSO; Western blotting and KAYAK
Tp53rk = target: T1, Tp53rk (Homo sapiens, UniProt Q96S44); assay: AAP protein-level capture with TMT, staurosporine competition in HeLa lysate; type: binding
T1 sequence (Q96S44 1-253): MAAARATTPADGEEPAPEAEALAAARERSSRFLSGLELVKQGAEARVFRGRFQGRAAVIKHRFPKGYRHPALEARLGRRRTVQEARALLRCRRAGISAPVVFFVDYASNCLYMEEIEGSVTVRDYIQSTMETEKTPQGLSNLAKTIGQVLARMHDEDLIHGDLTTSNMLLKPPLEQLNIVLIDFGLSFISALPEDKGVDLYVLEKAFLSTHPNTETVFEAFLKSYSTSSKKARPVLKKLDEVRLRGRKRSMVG

Compound | activation of Mapk, Akt, and Rps6ka1 kinases [1] | IC50 (Tp53rk)
EGF: stimulates EGFR and numerous downstream kinases | substantial activation | –
CN[C@@H]1C[C@H]2O[C@@](C)([C@@H]1OC)n1c3ccccc3c3c4c(c5c6ccccc6n2c5c31)C(=O)NC4 [staurosporine] | – | 73 µM
CS(=O)(=O)CCNCc1ccc(-c2ccc3ncnc(Nc4ccc(OCc5cccc(F)c5)c(Cl)c4)c3c2)o1 [lapatinib] | inhibition when lapatinib was present | –
